Experimental data: ChEMBL document CHEMBL4808216, “Gut-Restricted Selective Cyclooxygenase-2 (COX-2) Inhibitors for Chemoprevention of Colorectal Cancer” (J Med Chem, 2021)
In brackets after ≈: the same amount, converted by molar mass.

What was measured:
[1] = Drug concentration in C57BL/6J mouse portal vein plasma at 10 mg/kg, po administered as cassette dose measured at 4 hrs by LC/MS/MS analysis; assay type: ADME, organism-based
[2] = Protein binding in human plasma assessed as unbound fraction; assay type: ADME, cell-free
[3] = target: T1, Prostaglandin G/H synthase 1 (Homo sapiens, UniProt P23219); experiment: Inhibition of human recombinant COX-1 assessed as reduction in peroxidase activity using arachidonic acid as substrate preincubated for 60 mins followed by substrate addition for 2 secs by ADPH based fluorometric analysis; assay type: ADME
[4] = Drug concentration in C57BL/6J mouse plasma at 10 mg/kg, po administered as cassette dose measured at 4 hrs by LC/MS/MS analysis; assay type: ADME, organism-based
[5] = tested on: Mus musculus; experiment: Antitumor activity in C57BL/6J mouse model of spontaneous GI-tract tumor Apc-min assessed as reduction in total ileum polyp area at 300 mg/kg, po administered as suspension for 10 to 12 weeks; assay type: functional; settings: time 10-12 weeks, read-out: TGI
[6] = target: T1, Prostaglandin G/H synthase 1; experiment: Inhibition of COX1 (unknown origin) expressed in HEK293 TRex cells assessed as reduction in PGE2 production using arachidonic acid as substrate preincubated for 60 mins followed by substrate addition for 1 hr in presence of 10% FBS by RapidFire High-Throughput Mass Spectrometry; assay type: ADME, cell-based, HEK293-T-REx
[7] = Drug concentration in C57BL/6J mouse colon at 10 mg/kg, po administered as cassette dose measured at 4 hrs by LC/MS/MS analysis; assay type: ADME, organism-based; settings: read-out: Ct
[8] = Ratio of drug concentration in C57BL/6J mouse colon to plasma at 10 mg/kg, po measured after 4 hr by liquid chromatographic triple-quadrupole mass spectrometric method; assay type: ADME, organism-based; settings: for Ratio: other tissue, 10 mg/kg, 4 h; for Kp at 4 h: C57BL/6J, colon / plasma
[9] = target: T1, Prostaglandin G/H synthase 1; experiment: Inhibition of COX1 in human whole blood assessed as reduction in calcium ionophore-stimulated TXB2 production incubated for 1 hr by ELISA; assay type: tissue-based
[10] = target: T2, Prostaglandin G/H synthase 2 (Homo sapiens, UniProt P35354); experiment: Inhibition of human recombinant COX-2 using arachidonic acid as substrate preincubated for 60 mins followed by substrate addition for 2 secs by ADPH based fluorometric analysis
T2 sequence (P35354 whole entry): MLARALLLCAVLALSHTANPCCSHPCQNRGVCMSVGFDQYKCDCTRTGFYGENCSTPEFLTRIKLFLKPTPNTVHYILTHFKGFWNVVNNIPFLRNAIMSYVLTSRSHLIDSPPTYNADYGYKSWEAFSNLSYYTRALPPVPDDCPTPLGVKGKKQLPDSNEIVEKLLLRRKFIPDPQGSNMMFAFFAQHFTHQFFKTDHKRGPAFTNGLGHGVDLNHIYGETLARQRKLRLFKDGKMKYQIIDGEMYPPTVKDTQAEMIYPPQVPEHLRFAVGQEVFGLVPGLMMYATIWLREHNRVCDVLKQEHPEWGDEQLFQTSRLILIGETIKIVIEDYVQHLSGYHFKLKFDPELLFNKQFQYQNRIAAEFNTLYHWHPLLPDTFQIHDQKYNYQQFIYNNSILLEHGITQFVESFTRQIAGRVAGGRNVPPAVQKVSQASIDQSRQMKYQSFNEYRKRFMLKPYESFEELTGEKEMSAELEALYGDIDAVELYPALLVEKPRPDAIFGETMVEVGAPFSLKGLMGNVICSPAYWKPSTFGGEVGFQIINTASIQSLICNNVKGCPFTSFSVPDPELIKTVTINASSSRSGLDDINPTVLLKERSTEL

[11] = target: T3, Prostaglandin G/H synthase 2 (Homo sapiens) (UniProt P35354)
T3 sequence (whole entry): T2 sequence (P35354 whole entry)
Description: Protein occupancy at human recombinant COX-2 assessed as dissociation half life

[12] = target: T2, Prostaglandin G/H synthase 2; experiment: Inhibition of COX2 in human whole blood assessed as reduction in LPS stimulated PGE2 production incubated for 1 hr by ELISA; assay type: tissue-based
[13] = target: T2, Prostaglandin G/H synthase 2; experiment: Inhibition of human recombinant COX-2 assessed as reduction in peroxidase activity using arachidonic acid as substrate preincubated for 60 mins followed by substrate addition for 2 secs by ADPH based fluorometric analysis
[14] = Equilibrium solubility of compound in FASSIF at pH 6.5; assay type: physicochemical
[15] = target: T2, Prostaglandin G/H synthase 2; experiment: Inhibition of COX2 (unknown origin) expressed in HEK293 TRex cells assessed as reduction in PGE2 production using arachidonic acid as substrate preincubated for 60 mins followed by substrate addition for 1 hr in presence of 10% FBS by RapidFire High-Throughput Mass Spectrometry; assay type: cell-based, HEK293-T-REx
[16] = tested on: Mus musculus; experiment: Chemo-protective activity in C57BL/6J mouse model of spontaneous GI-tract tumor Apc-min assessed as 18F-FDG uptake in ileum at 300 mg/kg, po incorporated into chow diet administered daily for 2 weeks and measured after 14 days by ex vivo PET imaging analysis relative to control; assay type: functional
[17] = Protein binding in human colon assessed as unbound fraction; assay type: ADME, tissue-based
[18] = Clearance in C57BL/6J mouse at 2 mg/kg, iv measured after 0.08 to 24 hrs; assay type: ADME, organism-based; settings: in vivo, time 0.08-24 hrs
[19] = tested on: HEK293; experiment: Selectivity ratio of IC50 for COX1 (unknown origin) expressed in HEK293 TRex cells assessed as reduction in PGE2 production to IC50 for COX2 (unknown origin) expressed in HEK293 TRex cells assessed as reduction in PGE2 production; assay type: cell-based; settings: Homo sapiens
[20] = Half life in human hepatocytes; assay type: ADME, cell-based, Hepatocyte
[21] = Half life in human liver microsomes; assay type: ADME, Microsome
[22] = Half life in mouse liver microsomes; assay type: ADME, Microsome
[23] = tested on: Mus musculus; experiment: Antitumor activity in C57BL/6J mouse model of spontaneous GI-tract tumor Apc-min assessed as mouse survival at 100 mg/kg, po administered daily as suspension and measured at day 82 by Kaplan-Meier method; assay type: functional
[24] = Volume of distribution at steady state in C57BL/6J mouse at 2 mg/kg, iv measured after 0.08 to 24 hrs; assay type: ADME, organism-based; settings: C57BL/6J, in vivo, time 0.08-24 hrs, read-out: Vdss
[25] = Tmax in C57BL/6J mouse at 10 mg/kg, po administered as cassette dose measured at 4 hrs by liquid chromatographic triple-quadrupole mass spectrometric method; assay type: ADME, organism-based; settings: in vivo
[26] = Half life in mouse hepatocytes; assay type: ADME, cell-based, Hepatocyte
[27] = Half life in C57BL/6J mouse at 2 mg/kg, iv measured after 0.08 to 24 hrs; assay type: ADME, organism-based; settings: C57BL/6J, in vivo, time 0.08-24 hrs
[28] = organism: Homo sapiens; experiment: Selectivity ratio of IC50 for COX1 in human whole blood assessed as reduction in calcium ionophore-stimulated TXB2 production to IC50 for COX2 in human whole blood assessed as reduction in LPS stimulated PGE2 production; assay type: tissue-based
[29] = in vivo; settings: C57BL/6J, mouse, colon / portal vein plasma, po, 10 mg/kg
Description: Ratio of drug concentration in C57BL/6J mouse colon to portal vein plasma at 10 mg/kg, po measured after 4 hr by liquid chromatographic triple-quadrupole mass spectrometric method

T1 sequence (P23219 whole entry): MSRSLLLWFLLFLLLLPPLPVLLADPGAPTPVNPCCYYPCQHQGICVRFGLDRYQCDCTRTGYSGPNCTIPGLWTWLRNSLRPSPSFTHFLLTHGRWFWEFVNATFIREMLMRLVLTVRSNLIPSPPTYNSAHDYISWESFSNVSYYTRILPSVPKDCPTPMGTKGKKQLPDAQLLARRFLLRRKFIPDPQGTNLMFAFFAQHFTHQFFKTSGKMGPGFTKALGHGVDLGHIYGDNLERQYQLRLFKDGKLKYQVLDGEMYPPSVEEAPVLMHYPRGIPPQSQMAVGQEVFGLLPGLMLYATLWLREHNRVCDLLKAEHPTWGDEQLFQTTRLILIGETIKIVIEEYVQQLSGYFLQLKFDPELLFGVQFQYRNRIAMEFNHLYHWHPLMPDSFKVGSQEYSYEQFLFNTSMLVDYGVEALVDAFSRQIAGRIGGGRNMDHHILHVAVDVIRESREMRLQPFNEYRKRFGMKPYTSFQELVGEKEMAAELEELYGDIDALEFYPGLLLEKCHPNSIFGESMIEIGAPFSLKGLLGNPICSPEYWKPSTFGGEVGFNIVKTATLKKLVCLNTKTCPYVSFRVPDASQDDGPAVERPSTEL

Row | Structure (SMILES) | IC50 [3] [µM] | concentration at 4 h [4] [ng/mL] | IC50 [6] [µM] | concentration at 4 h [7] [ng/g] | IC50 [13] [µM] | IC50 [15] [µM] | clearance [18] [mL/min/kg] | Kp at 4 h [8] | further results
1 | CCCCOc1nc(OCC(C)(C)O)c(-c2ccc(S(N)(=O)=O)cn2)cc1CO | > 50 | 5.5 | > 50 | 12000 | 0.45 | 0.23 | – | – | concentration at 4 h [1]: 7.1 ng/mL; fraction unbound [2]: 0.002; inhibition in vivo at 300 mg/kg [5]: 25%; Ratio [8]: 2179; IC50 [9]: > 60 µM; Ki [10]: 0.019 µM; T1/2 [11]: 23 h; IC50 [12]: 7.23 µM; solubility thermodynamic [14]: 63.1 µM (≈ 26.8 µg/mL); Activity [16]: 54.8%; fraction unbound [17]: 0.075
2 | CCCCOc1nc(OCC(C)(C)O)c(-c2ccc(S(C)(=O)=O)cc2)cc1COCCO | – | 28.7 | > 50 | 478 | – | 0.54 | 55.4 | 16.5 | –
3 | CCCCOc1nc(-c2ccc(F)cc2)c(-c2ccc(S(C)(=O)=O)cc2)cc1CO | – | 75.9 | 0.511 | 1940 | – | 0.049 | 32.2 | 24.9 | Ratio IC50 [19]: 10
4 | Cc1ccc(-c2cc(C(F)(F)F)nn2-c2ccc(S(N)(=O)=O)cc2)cc1 [CELECOXIB] | – | 2550 | – | 9460 | – | – | 10.5 | – | half-life [20]: 0.957 h; concentration at 4 h [1]: 2150 ng/mL; Fu [2]: 0.3%; half-life [21]: 1.12 h; inhibition in vivo at 300 mg/kg [5]: 65.9%; half-life [22]: 0.988 h; Survival [23]: >82 days; Vd [24]: 0.94 L/kg; Tmax [25]: 0.25 h; half-life [26]: 0.552 h; half-life [27]: 1.27 h; solubility thermodynamic [14]: 134 µM (≈ 50.9 µg/mL); Activity [16]: 31.4%; fraction unbound [17]: 0.0031
5 | CC(C)(O)COc1ncc(C(F)(F)F)cc1-c1ccc(S(C)(=O)=O)cc1 | > 50 | 9800 | > 50 | 8400 | 0.39 | 1.5 | 0.54 | 0.9 | half-life [20]: > 6.18 h; half-life [21]: > 3.07 h; half-life [22]: > 3.07 h; Vd [24]: 1.55 L/kg; Tmax [25]: 3 h; half-life [26]: > 6.18 h; half-life [27]: 38.5 h
6 | CCCCOc1nc(OCC(C)(C)O)c(-c2ccc(S(C)(=O)=O)cc2)cc1C(C)(C)O | – | 35.8 | > 50 | 85.8 | – | 1.21 | 58.8 | 2.5 | –
7 | CCCCOc1nc(OCC2(O)CCC2)c(-c2ccc(S(C)(=O)=O)cc2)cc1CO | > 50 | 9.9 | 7.23 | 5390 | 0.12 | 0.037 | 100 | 545 | concentration at 4 h [1]: 82.4 ng/mL; fraction unbound [2]: 0.005; Ratio IC50 [28]: > 200; IC50 [9]: > 60 µM; Ki [10]: 0.003 µM; T1/2 [11]: 39 h; IC50 [12]: 0.146 µM; Kp at 4 h [29]: 69.9; solubility thermodynamic [14]: 56.1 µM (≈ 24.4 µg/mL); Activity [16]: 61.2%; fraction unbound [17]: 0.055
8 | CC(C)Oc1nc(OCC(C)(C)O)c(-c2ccc(S(C)(=O)=O)cc2)cc1CO | > 50 | – | > 50 | – | 4.1 | > 50 | – | – | –
9 | Cc1cnc(OCC(C)(C)O)c(-c2ccc(S(C)(=O)=O)cc2)c1 | > 50 | – | > 50 | – | 6.36 | 1.89 | – | – | –
10 | Cc1ccc(-c2ncc(Cl)cc2-c2ccc(S(C)(=O)=O)cc2)cn1 [ETORICOXIB] | > 50 | 36.4 | > 50 | 55.7 | – | – | 41.3 | 1.5 | half-life [20]: > 6.18 h; concentration at 4 h [1]: 48.6 ng/mL; fraction unbound [2]: 0.114; half-life [21]: > 3.07 h; half-life [22]: 0.897 h; Survival [23]: >82 days; IC50 [9]: 93.8 µM; T1/2 [11]: 6.1 h; Vd [24]: 1.27 L/kg; Tmax [25]: 0.25 h; Kp at 4 h [29]: 1.2; half-life [26]: 0.487 h; half-life [27]: 0.78 h; solubility thermodynamic [14]: 358 µM (≈ 128 µg/mL); Activity [16]: 43.5%
11 | CCCCOc1nc(OCC2COC2)c(-c2ccc(S(C)(=O)=O)cc2)cc1CO | – | 6.7 | 2.46 | 1870 | – | 0.036 | 102 | 402 | Ratio IC50 [19]: 70
12 | COCCOc1nc(OCC(C)(C)O)c(-c2ccc(S(C)(=O)=O)cc2)cc1CO | > 50 | – | > 50 | – | 18.2 | 2.95 | – | – | –
13 | CCCCOc1nc(OCC(C)(C)O)c(-c2ccc(S(C)(=O)=O)cc2)cc1C(C)O (centres undefined) | – | 22.8 | 7.69 | 2810 | – | 2.34 | 48.2 | 134 | –
14 | CCCCOc1nc(OCC2(O)COC2)c(-c2ccc(S(C)(=O)=O)cc2)cc1CO | – | 7.7 | > 50 | 11900 | – | 1.32 | 68.6 | – | Ratio [8]: 1596
15 | CC(C)(O)COc1ncc(CO)cc1-c1ccc(S(C)(=O)=O)cc1 | > 50 | – | > 50 | – | > 50 | > 50 | – | – | –
16 | CCCCOc1nc(OCC2(C)COC2)c(-c2ccc(S(C)(=O)=O)cc2)cc1CO | – | 2 | > 50 | 1850 | – | 0.21 | 89.3 | – | Ratio [8]: 1040
17 | CCCCOc1nc(OCC(C)(C)O)c(-c2ccc(S(C)(=O)=O)cc2)cc1C(=O)O | – | – | – | – | > 50 | – | – | – | –
18 | CCc1cnc(OCC(C)(C)O)c(-c2ccc(S(C)(=O)=O)cc2)c1 | > 50 | 21.8 | > 50 | 51.6 | 3.24 | 0.95 | 65.6 | 2.5 | half-life [20]: 1.4 h; half-life [21]: 1.15 h; half-life [22]: 0.22 h; Vd [24]: 1.35 L/kg; Tmax [25]: 0.25 h; half-life [26]: 0.0533 h; half-life [27]: 0.32 h
19 | COc1nc(OCC(C)(C)O)c(-c2ccc(S(C)(=O)=O)cc2)cc1CO | > 50 | – | > 50 | – | 17.1 | > 50 | – | – | –
